Measured values reported in patent US9822136B2, “Chemical inhibitors of sebocyte function” (priority 2016, dated 2017).
Entries after “also recorded” stand apart in the source; their conditions may differ.

How the values were obtained:
cloned hTRPM8 channel = target: T1, cloned hTRPM8 channel (Homo sapiens, UniProt Q7Z2W7); test: TRPM8 activation, FLIPR calcium assay in CHO cells; assay type: cell-based; settings: for Relative Potency to I-menthol: TRPM8 EC50 relative to I-menthol
T1 construct: host or cells: CHO cells
T1 sequence (Q7Z2W7 whole entry): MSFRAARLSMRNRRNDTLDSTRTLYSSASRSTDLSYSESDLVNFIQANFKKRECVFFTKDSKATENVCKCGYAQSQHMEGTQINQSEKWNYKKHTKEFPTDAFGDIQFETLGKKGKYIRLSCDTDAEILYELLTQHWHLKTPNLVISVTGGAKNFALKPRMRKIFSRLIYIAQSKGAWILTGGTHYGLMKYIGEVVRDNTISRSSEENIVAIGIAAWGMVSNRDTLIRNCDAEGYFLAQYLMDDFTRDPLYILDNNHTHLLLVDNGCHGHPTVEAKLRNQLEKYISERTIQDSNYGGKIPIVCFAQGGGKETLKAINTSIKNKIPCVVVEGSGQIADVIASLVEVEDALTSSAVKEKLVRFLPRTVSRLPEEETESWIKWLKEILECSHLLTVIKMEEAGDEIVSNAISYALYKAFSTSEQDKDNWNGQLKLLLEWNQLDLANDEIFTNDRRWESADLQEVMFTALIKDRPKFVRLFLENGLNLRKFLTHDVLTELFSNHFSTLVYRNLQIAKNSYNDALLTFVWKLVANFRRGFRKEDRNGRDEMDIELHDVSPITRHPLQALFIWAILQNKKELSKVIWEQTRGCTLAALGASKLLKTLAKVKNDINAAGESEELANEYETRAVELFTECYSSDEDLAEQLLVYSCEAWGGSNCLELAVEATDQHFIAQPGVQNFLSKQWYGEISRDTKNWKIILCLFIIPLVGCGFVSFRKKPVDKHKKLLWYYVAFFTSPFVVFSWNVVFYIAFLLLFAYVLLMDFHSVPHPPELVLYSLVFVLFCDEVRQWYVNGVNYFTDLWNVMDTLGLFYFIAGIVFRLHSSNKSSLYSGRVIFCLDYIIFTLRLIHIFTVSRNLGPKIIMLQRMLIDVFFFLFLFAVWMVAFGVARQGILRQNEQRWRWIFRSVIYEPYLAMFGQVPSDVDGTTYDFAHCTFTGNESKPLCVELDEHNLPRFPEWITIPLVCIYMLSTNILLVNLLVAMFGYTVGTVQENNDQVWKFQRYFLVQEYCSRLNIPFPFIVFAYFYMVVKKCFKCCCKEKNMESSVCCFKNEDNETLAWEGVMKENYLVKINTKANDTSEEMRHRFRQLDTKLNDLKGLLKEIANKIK
Experimental: The in vitro effects of test articles were first evaluated on cloned hTRPM8 channel. […] The test cells were Chinese Hamster Ovary (CHO) cells stably transfected with human TRPM8 cDNAs. […] Substances were evaluated at 8 concentrations (0.03 to 300 μM) with n=4 replicates per determination. For Fluorescence Imaging Plate Reader ([…]″) assay, cells were plated in 384-well black wall, flat clear-bottom microtiter plates (Type: BD Biocoat Poly-D-Lysine Multiwell Cell Culture Plate) at approximately 30,000 cells per well. Cells were incubated at 37° C. overnight to reach a near confluent monolayer appropriate for use in a fluorescence assay. The test procedure was to remove the growth media and to add 40 μL of HBPS containing Fluo-8 for 30 minutes at 37° C. 10 μL of test compound, vehicle, or control solutions in HBPS were then added to each well and read for 4 min using a Fluo-8 calcium kit and the […]″ instrument (Molecular Devices, Sunnyvale, California). […] J. Neurosci.
Concentration-response data were analysed via the FLIPR Control software that is supplied with the FLIPR System (MDS-AT) and fitted to a Hill equation of the following form: Response=Base+(Max−Base)/1+(xhalf/x)^rate, where: “Base” is the response at low concentrations of test compound; “Max” is the maximum response at high concentrations; “xhalf” is the EC50 (the concentration of test compound producing half-maximal activation); and “rate” is the Hill coefficient. Nonlinear least squares fits were made assuming a simple one-to-one binding model.

sebocytes [1] = test: Sebocyte viability, MTT assay; assay type: cell-based, human; settings: for Activity relative to 1-8 in the MTT sebocyte assay: FIG. 4; for Sebocyte cell viability as % of controls (FIG. 4): at 0.10 μM
Experimental: (§1) The activities of 1-7 and 1-8 on an immortalized sebocyte cell line were examined in the laboratory of Prof Im Myung using methods previously described [Im et al. Epigallocatechin-3-gallate suppresses IGF-I-induced lipogenesis and cytokine expression in SZ95 sebocytes. J. Invest. Dermatol. 132, 2700-8 (2012)]. Proliferation of the sebocytes was measured using the MTT assay, by examination of micrographs of the cells in culture, and ^3H-thymidine incorporation. The effects of the test agents on lipogenesis were further studied by Oil Red O staining and analysis of the lipid composition of the cells. Studies were also conducted on signaling pathways for lipogenesis [PPAR and SREBP-1, Trivedi et al. Peroxisome proliferator-activated receptors increase human sebum production. J. Invest. Dermatol. 126, 2002-9 (2006)].
The MTT assay is a colorimetric assay for cell viability. MTT [3-(4,5-dimethylthiazol-2-yl)-2-5-diphenyltetrazolium bromide], a yellow tetra-azole dye, is reduced to purple formazan in living cells by NADPH-dependent oxidoreductase enzymes. When the number of viable cells decreases the amount of enzymatic activity and purple color decreases and this can be measured with a spectrophotometer.
(§2) 1-7 and 1-8 are sensory cooling agents on the skin and activators [agonists] of the TRPM8 ion channel protein. […] The indicators used for direct comparison were sebocyte viability measured in the MTT assay and then the ^3H-thymidine incorporation assay.

sebocytes [2] = test: 3H-thymidine incorporation into sebocytes; assay type: cell-based, human; settings: for activity at 10 µM: Homo sapiens, 3 h, uptake into sebocytes, NS = not significant
Experimental: as §1, §2

sebocytes [3] = test: IGF-1 stimulated lipogenesis in sebocytes (Oil Red O, thin-layer and gas chromatography of lipids); assay type: cell-based, human; settings: IGF-1 stimulated sebocytes
Experimental: as §1, with “132, 2700-8 (2012)].” left out, “Dermatol.” for “Dermatol. 126, 2002-9 (2006)].”
J. Invest. Dermatol. […] Oil Red 0 [Sudan Red 5B] is a diazo dye used for staining neutral triglycerides and lipids on cells.

zygomatic/forehead skin = test: Cooling sensation after application to zygomatic/forehead skin; assay type: in vivo, human; settings: for Sensory Quality / Duration / Onset: 20 mg/mL in distilled water; for Duration: offset minus onset; for Onset: time to reach 2 units of coolness
Experimental: When certain Dapa compounds are applied to the zygomatic and forehead skin, sensations of coolness/cold are felt and can be graded in intensity [Wei. 1-Di-isopropyl-phosphinoyl-alkanes as topical agents for the treatment of sensory discomfort. US 2015/0164924]. For example, one can rate the sensation as 0, 1, 2, or 3 with: 0 as no change; 1 as slight coolness, or cold; 2 as clear-cut signal of coolness or cold; and 3 as strong cooling or cold. The intervals for recording are 5 to 15 minutes, until at least two successive zeroes are obtained. The onset of drug action is taken as the time to reach 2 units of coolness intensity. The active compounds here, e.g, 1-7 produce cooling with 1 min after application. The duration of Dapa-compound action is defined as the offset time minus the onset time. The offset of drug action is defined here as the time when coolness intensity drops below 2, after previously surpassing 2 units.
Test compounds were applied to the skin of the forehead and zygomatic using cotton gauze (0.4 g, rectangular, 50 mm×60 mm; from CS-being, Daisan Cotton, Japan). The test compounds were used at a concentration of 20 mg/mL in distilled water. From the data shown above, it can be seen that, among these compounds, 1-7 and 1-8 evoked cool/cold on zygomatic/forehead skin.

[4] = tested on: forehead skin of human subjects; test: Sebum secretion of forehead skin (Sebumeter); assay type: in vivo; settings: 20 mg/mL on forehead, FIG. 2
Experimental: Sebum is an oily substance secreted by the sebaceous gland. These glands, attached to hair follicles, are abundant on the face and scalp. Increased secretion of sebum, for example during teenage years, and associated with androgen stimulation is associated with acne. […] Sebum secretion was measured here using a Sebumeter®, a standardized instrument based on a mat tape brought into contact with the skin, and then grease spot photometry [CK Electronic, Cologne, Germany].
In nine human subjects the baseline secretion of sebum was 188±19 μg/cm^2. […] This pharmacological effect has not been previously observed with Dapa-compounds such as 1-7. This was a new and unexpected observation.

human sebocytes = test: Inhibition of sebocyte function in cultured human sebocytes (assay not specified); assay type: cell-based
Experimental: as §1, §2

Row | Structure (SMILES) | activity at 10 µM (sebocytes [2]) | Relative Potency to I-menthol (cloned hTRPM8 channel) | Sensory Quality (zygomatic/forehead skin) | Duration (zygomatic/forehead skin) | Onset (zygomatic/forehead skin) | Activity on sebocyte viability (structure-activity summary of Table 6) (sebocytes [1]) | also measured
1 | CCCCCCCCCCP(=O)(C(C)C)C(C)C [Code 1-10, 1-diisopropylphosphoryldecane] | ≥ 100% |  |  |  |  |  | Activity on TRPM8 (cloned hTRPM8 channel): low potency; Activity relative to 1-8 in the MTT sebocyte assay (sebocytes [1]): 10,000 x; Sebocyte cell viability as % of controls (FIG. 4) (sebocytes [1]): strongly inhibited; Levels / production of squalene (thin layer chromatography, FIG. 5) (sebocytes [3]): lowers
2 | CCCCCCP(=O)(C(C)CC)C(C)CC (centres unmarked) [Code 2-6, 1-disec-butylphosphorylhexane] | ≥ 100% | 4.7 | cold | 1.5 h | ~2 min | absence of activities | 
3 | CCCCCCCP(=O)(C(C)C)C(C)C [Code 1-7, 1-diisopropylphosphorylheptane] | ≥ 100% | 5.4 | dynamic-icy | 3.2 h | ~1 min |  | Onset of cooling after application (zygomatic/forehead skin): ≤ 1 min; Duration of localized cooling and refreshing sensations (zygomatic/forehead skin; forehead skin, 20 mg/mL, 0.08 to 0.15 mL): several hours; Sebum secretion after topical application [4]: significantly decreased; Sebocyte cell viability as % of controls (FIG. 3) (sebocytes [1]; concentrations in mM, 1-8 at 1 mM): did not inhibit; Inhibition of sebocyte function (human sebocytes; 0.1mM): not seen
4 | CCCCCCP(=O)(C(C)C)C(C)C [Code 1-6, 1-diisopropylphosphorylhexane] |  | 1.6 | dynamic | 1.3 h | ~1 min |  | 
5 | CCCCCP(=O)(C(C)C)C(C)C [Code 1-5, 1-diisopropylphosphorylpentane] |  | 0.7 | dynamic | 0.5 h | ~1 min |  | 
6 | CCCCCP(=O)(C(C)CC)C(C)CC (centres unmarked) [Code 2-5, 1-disec-butylphosphorylpentane] | ≥ 98% | 2.2 | cool | 1.1 h | ~1 min |  | 
7 | CCCCP(=O)(C(C)CC)C(C)CC (centres unmarked) [Code 2-4, 1-disec-butylphosphorylbutane] |  | 0.3 | cool | 0.3 h | ~1 min |  | 
8 | CCCCCCCCP(=O)(C(C)CC)C(C)CC (centres unmarked) [Code 2-8, 1-disec-butylphosphoryloctane] | ≥ 90% | 2.9 | cold | 5.6 h | 5 min | more activity than 2-6 or 2-7 | 
9 | CCCCCCCP(=O)(C(C)CC)C(C)CC (centres unmarked) [Code 2-7, 1-disec-butylphosphorylheptane] | ≥ 85% | 3.4 | cold | 2.4 h | ~2 min | absence of activities | 
10 | CC1=C(/C=C/C(C)=C/C=C/C(C)=C\C(=O)O)C(C)(C)CCC1 [cis-retinoic acid, reference compound] |  |  |  |  |  |  | IGF-1 increased lipids, gel staining (FIG. 5) (sebocytes [3]): inhibited
11 | CCCCCCCCCCCCP(=O)(C(C)C)C(C)C [Code 1-12, 1-diisopropylphosphoryldodecane] | ~40% |  |  |  |  |  | Activity on TRPM8 (cloned hTRPM8 channel): low potency; also recorded: very low activity; Activity relative to 1-8 in the MTT sebocyte assay (sebocytes [1]): 10,000 x; Sebocyte cell viability as % of controls (FIG. 4) (sebocytes [1]): strongly inhibited; Inhibition of 3H-thymidine incorporation into sebocytes (sebocytes [2]): clearly inhibited; Levels / production of squalene (thin layer chromatography, FIG. 5) (sebocytes [3]): effective; also recorded: lowers; Concentration at which fully effective (human sebocytes; sebocytes in culture): 0.01 µM
12 | CCCCCCCCCP(=O)(C(C)C)C(C)C [Code 1-9, 1-diisopropylphosphorylnonane] | ≥ 85% | 4.0 | cool | 2.0 h | ~2 min | active | 
13 | CC1=C(/C=C/C(C)=C/C=C/C(C)=C/C(=O)O)C(C)(C)CCC1 [trans-retinoic acid, reference compound] |  |  |  |  |  |  | IGF-1 increased lipids, gel staining (FIG. 5) (sebocytes [3]): inhibited
